Experimental data published in ChEMBL document CHEMBL3046000, “Design and synthesis of 1-(benzothiazol-5-yl)-1H-1,2,4-triazol-5-ones as protoporphyrinogen oxidase inhibitors” (Bioorg Med Chem, 2013).
pKi: −log10 of the molar value.

Tested on: Digitaria sanguinalis
Test: Post-emergence herbicidal activity against Digitaria sanguinalis (hairy crabgrass) seedlings assessed as plant growth inhibition at 75 g ai/ha measured 15 days after compound treatment under greenhouse conditions
Format: functional
Settings: 360 h, read-out: GI

Row | SMILES | inhibition of growth at 75 g/ha
1 | Cc1nn(-c2cc3nc(SCC(=O)O)sc3cc2F)c(=O)n1C(F)F | < 50%
2 | Cc1nn(-c2cc3nc(SC(C)C(=O)O)sc3cc2Cl)c(=O)n1C(F)F (stereo not drawn) | < 50%

Tested on: Chenopodium album
Test: Post-emergence herbicidal activity against Chenopodium album seedlings assessed as plant growth inhibition at 150 g ai/ha measured 15 days after compound treatment under greenhouse conditions
Format: functional
Settings: 360 h, read-out: GI

Row | SMILES | inhibition of growth at 150 g/ha
3 | Cc1nn(-c2cc3nc(SCC(=O)O)sc3cc2F)c(=O)n1C(F)F | ≥ 90%
4 | Cc1nn(-c2cc3nc(SC(C)C(=O)O)sc3cc2Cl)c(=O)n1C(F)F (stereo not drawn) | ≥ 90%

Tested on: Echinochloa crus-galli
Test: Post emergence herbicidal activity against Echinochloa crus-galli (barnyard grass) seedlings assessed as plant growth inhibition at 37.5 g ai/ha measured 15 days after compound treatment under greenhouse conditions
Format: functional
Settings: 360 h, read-out: GI

Row | SMILES | inhibition of growth at 37.5 g/ha
5 | Cc1nn(-c2cc3nc(SCC(=O)O)sc3cc2F)c(=O)n1C(F)F | 50%
6 | Cc1nn(-c2cc3nc(SC(C)C(=O)O)sc3cc2Cl)c(=O)n1C(F)F (stereo not drawn) | < 50%

Tested on: Digitaria sanguinalis
Test: Post-emergence herbicidal activity against Digitaria sanguinalis (hairy crabgrass) seedlings assessed as plant growth inhibition at 150 g ai/ha measured 15 days after compound treatment under greenhouse conditions
Format: functional
Settings: 360 h, read-out: GI

Row | SMILES | inhibition of growth at 150 g/ha
7 | Cc1nn(-c2cc3nc(SCC(=O)O)sc3cc2F)c(=O)n1C(F)F | ≥ 90%
8 | Cc1nn(-c2cc3nc(SC(C)C(=O)O)sc3cc2Cl)c(=O)n1C(F)F (stereo not drawn) | ≥ 90%

Tested on: Echinochloa crus-galli
Test: Post emergence herbicidal activity against Echinochloa crus-galli (barnyard grass) seedlings assessed as plant growth inhibition at 150 g ai/ha measured 15 days after compound treatment under greenhouse conditions
Format: functional
Settings: 360 h, read-out: GI

Row | SMILES | inhibition of growth at 150 g/ha
9 | Cc1nn(-c2cc3nc(SCC(=O)O)sc3cc2F)c(=O)n1C(F)F | ≥ 90%
10 | Cc1nn(-c2cc3nc(SC(C)C(=O)O)sc3cc2Cl)c(=O)n1C(F)F (stereo not drawn) | ≥ 90%

Tested on: Brassica juncea
Test: Post-emergence herbicidal activity against Brassica juncea seedlings assessed as plant growth inhibition at 37.5 g ai/ha measured 15 days after compound treatment under greenhouse conditions
Format: functional
Settings: 360 h, read-out: GI

Row | SMILES | inhibition of growth at 37.5 g/ha
11 | Cc1nn(-c2cc3nc(SCC(=O)O)sc3cc2F)c(=O)n1C(F)F | < 50%
12 | Cc1nn(-c2cc3nc(SC(C)C(=O)O)sc3cc2Cl)c(=O)n1C(F)F (stereo not drawn) | < 50%

Tested on: Setaria faberi
Test: Post-emergence herbicidal activity against Setaria faberi (Giant Foxtail) seedlings assessed as plant growth inhibition at 150 g ai/ha measured 15 days after compound treatment under greenhouse conditions
Format: functional
Settings: 360 h, read-out: GI

Row | SMILES | inhibition of growth at 150 g/ha
13 | Cc1nn(-c2cc3nc(SCC(=O)O)sc3cc2F)c(=O)n1C(F)F | ≥ 90%
14 | Cc1nn(-c2cc3nc(SC(C)C(=O)O)sc3cc2Cl)c(=O)n1C(F)F (stereo not drawn) | ≥ 90%

Tested on: Brassica juncea
Test: Post-emergence herbicidal activity against Brassica juncea seedlings assessed as plant growth inhibition at 150 g ai/ha measured 15 days after compound treatment under greenhouse conditions
Format: functional
Settings: 360 h, read-out: GI

Row | SMILES | inhibition of growth at 150 g/ha
15 | Cc1nn(-c2cc3nc(SCC(=O)O)sc3cc2F)c(=O)n1C(F)F | ≥ 90%
16 | Cc1nn(-c2cc3nc(SC(C)C(=O)O)sc3cc2Cl)c(=O)n1C(F)F (stereo not drawn) | ≥ 90%

Tested on: Digitaria sanguinalis
Test: Post-emergence herbicidal activity against Digitaria sanguinalis (hairy crabgrass) seedlings assessed as plant growth inhibition at 37.5 g ai/ha measured 15 days after compound treatment under greenhouse conditions
Format: functional
Settings: 360 h, read-out: GI

Row | SMILES | inhibition of growth at 37.5 g/ha
17 | Cc1nn(-c2cc3nc(SCC(=O)O)sc3cc2F)c(=O)n1C(F)F | < 50%
18 | Cc1nn(-c2cc3nc(SC(C)C(=O)O)sc3cc2Cl)c(=O)n1C(F)F (stereo not drawn) | < 50%

Tested on: Setaria faberi
Test: Post-emergence herbicidal activity against Setaria faberi (Giant Foxtail) seedlings assessed as plant growth inhibition at 75 g ai/ha measured 15 days after compound treatment under greenhouse conditions
Format: functional
Settings: 360 h, read-out: GI

Row | SMILES | inhibition of growth at 75 g/ha
19 | Cc1nn(-c2cc3nc(SCC(=O)O)sc3cc2F)c(=O)n1C(F)F | 50%
20 | Cc1nn(-c2cc3nc(SC(C)C(=O)O)sc3cc2Cl)c(=O)n1C(F)F (stereo not drawn) | < 50%

Molecular target: T1, Protoporphyrinogen oxidase, chloroplastic (Nicotiana tabacum, UniProt O24163)
T1 sequence (O24163 whole entry): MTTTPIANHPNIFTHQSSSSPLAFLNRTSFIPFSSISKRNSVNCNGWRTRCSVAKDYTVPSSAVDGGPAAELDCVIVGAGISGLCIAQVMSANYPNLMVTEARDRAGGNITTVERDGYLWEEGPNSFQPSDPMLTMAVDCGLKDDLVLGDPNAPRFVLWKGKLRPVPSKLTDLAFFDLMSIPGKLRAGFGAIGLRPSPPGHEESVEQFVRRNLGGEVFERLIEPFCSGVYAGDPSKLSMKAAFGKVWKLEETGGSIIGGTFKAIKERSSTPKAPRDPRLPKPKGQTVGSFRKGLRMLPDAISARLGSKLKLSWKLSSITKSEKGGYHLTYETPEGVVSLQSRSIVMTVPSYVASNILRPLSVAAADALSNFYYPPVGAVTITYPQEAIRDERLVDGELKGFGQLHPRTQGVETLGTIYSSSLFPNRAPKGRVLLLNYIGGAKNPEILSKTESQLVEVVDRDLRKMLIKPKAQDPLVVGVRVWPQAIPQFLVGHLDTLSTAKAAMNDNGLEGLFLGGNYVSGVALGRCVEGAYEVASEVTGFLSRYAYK
Test: Inhibition of Nicotiana tabacum (tobacco) recombinant PPO assessed as protoporphyrin IX formation at room temperature by fluorimetric assay
Settings: not given

Row | SMILES | pKi
21 | Cc1nn(-c2cc3nc(SCC(=O)O)sc3cc2F)c(=O)n1C(F)F | 5.82
22 | Cc1nn(-c2cc3nc(SC(C)C(=O)O)sc3cc2Cl)c(=O)n1C(F)F (stereo not drawn) | 5.17

Tested on: Amaranthus retroflexus
Test: Post emergence herbicidal activity against Amaranthus retroflexus seedlings assessed as plant growth inhibition at 37.5 g ai/ha measured 15 days after compound treatment under greenhouse conditions
Format: functional
Settings: 360 h, read-out: GI

Row | SMILES | inhibition of growth at 37.5 g/ha
23 | Cc1nn(-c2cc3nc(SCC(=O)O)sc3cc2F)c(=O)n1C(F)F | ≥ 90%
24 | Cc1nn(-c2cc3nc(SC(C)C(=O)O)sc3cc2Cl)c(=O)n1C(F)F (stereo not drawn) | < 50%

Tested on: Amaranthus retroflexus
Test: Post emergence herbicidal activity against Amaranthus retroflexus seedlings assessed as plant growth inhibition at 75 g ai/ha measured 15 days after compound treatment under greenhouse conditions
Format: functional
Settings: 360 h, read-out: GI

Row | SMILES | inhibition of growth at 75 g/ha
25 | Cc1nn(-c2cc3nc(SCC(=O)O)sc3cc2F)c(=O)n1C(F)F | ≥ 90%
26 | Cc1nn(-c2cc3nc(SC(C)C(=O)O)sc3cc2Cl)c(=O)n1C(F)F (stereo not drawn) | 60%

Tested on: Brassica juncea
Test: Post-emergence herbicidal activity against Brassica juncea seedlings assessed as plant growth inhibition at 75 g ai/ha measured 15 days after compound treatment under greenhouse conditions
Format: functional
Settings: 360 h, read-out: GI

Row | SMILES | inhibition of growth at 75 g/ha
27 | Cc1nn(-c2cc3nc(SCC(=O)O)sc3cc2F)c(=O)n1C(F)F | 80%
28 | Cc1nn(-c2cc3nc(SC(C)C(=O)O)sc3cc2Cl)c(=O)n1C(F)F (stereo not drawn) | 80%

Tested on: Setaria faberi
Test: Post-emergence herbicidal activity against Setaria faberi (Giant Foxtail) seedlings assessed as plant growth inhibition at 37.5 g ai/ha measured 15 days after compound treatment under greenhouse conditions
Format: functional
Settings: 360 h, read-out: GI

Row | SMILES | inhibition of growth at 37.5 g/ha
29 | Cc1nn(-c2cc3nc(SCC(=O)O)sc3cc2F)c(=O)n1C(F)F | 50%
30 | Cc1nn(-c2cc3nc(SC(C)C(=O)O)sc3cc2Cl)c(=O)n1C(F)F (stereo not drawn) | < 50%

Tested on: Chenopodium album
Test: Post-emergence herbicidal activity against Chenopodium album seedlings assessed as plant growth inhibition at 37.5 g ai/ha measured 15 days after compound treatment under greenhouse conditions
Format: functional
Settings: 360 h, read-out: GI

Row | SMILES | inhibition of growth at 37.5 g/ha
31 | Cc1nn(-c2cc3nc(SCC(=O)O)sc3cc2F)c(=O)n1C(F)F | 80%
32 | Cc1nn(-c2cc3nc(SC(C)C(=O)O)sc3cc2Cl)c(=O)n1C(F)F (stereo not drawn) | 60%

Tested on: Echinochloa crus-galli
Test: Post emergence herbicidal activity against Echinochloa crus-galli (barnyard grass) seedlings assessed as plant growth inhibition at 75 g ai/ha measured 15 days after compound treatment under greenhouse conditions
Format: functional
Settings: 360 h, read-out: GI

Row | SMILES | inhibition of growth at 75 g/ha
33 | Cc1nn(-c2cc3nc(SCC(=O)O)sc3cc2F)c(=O)n1C(F)F | 50%
34 | Cc1nn(-c2cc3nc(SC(C)C(=O)O)sc3cc2Cl)c(=O)n1C(F)F (stereo not drawn) | < 50%

Tested on: Chenopodium album
Test: Post-emergence herbicidal activity against Chenopodium album seedlings assessed as plant growth inhibition at 75 g ai/ha measured 15 days after compound treatment under greenhouse conditions
Format: functional
Settings: 360 h, read-out: GI

Row | SMILES | inhibition of growth at 75 g/ha
35 | Cc1nn(-c2cc3nc(SCC(=O)O)sc3cc2F)c(=O)n1C(F)F | 80%
36 | Cc1nn(-c2cc3nc(SC(C)C(=O)O)sc3cc2Cl)c(=O)n1C(F)F (stereo not drawn) | ≥ 90%

Tested on: Amaranthus retroflexus
Test: Post emergence herbicidal activity against Amaranthus retroflexus seedlings assessed as plant growth inhibition at 150 g ai/ha measured 15 days after compound treatment under greenhouse conditions
Format: functional
Settings: 360 h, read-out: GI

Row | SMILES | inhibition of growth at 150 g/ha
37 | Cc1nn(-c2cc3nc(SCC(=O)O)sc3cc2F)c(=O)n1C(F)F | ≥ 90%
38 | Cc1nn(-c2cc3nc(SC(C)C(=O)O)sc3cc2Cl)c(=O)n1C(F)F (stereo not drawn) | ≥ 90%
